Patent publication US10570180B2, “Anti-bacterial agents and their use in therapy” (priority 2015, dated 2020)
Like-named read-outs stand apart in the source and are kept apart here. Ends that are not written are not given here.

Tests used:
[1] = system: gram negative bacteria (Pseudomonas aeruginosa ATCC 15692, Acinetobacter baumenni ATCC 19606, Escherichia coli ATCC 25922, Pseudomonas aeruginosa TO-5A); type: cell-based
Description: (§1) The minimum inhibitory concentration (MIC) of ATX-101 (SEQ ID NO: 1289) was determined for various gram negative and gram positive bacteria. The bacteria, Pseudomonas aeruginosa ATCC 15692, Acinetobacter baumenni ATCC 19600, Escherichia coli ATCC 25922, Pseudomonas aeruginosa TO-5A (clinical isolate), Enterococous faecium CCUG 37832, Enterococcus faecium CTC 492, Micrococcus luteus ATCC 9341 and Escherichie coli NCIMB 12210 were grown in the presence of various concentrations of ATX-101 and/or antibiotic.
(§2) ATX-101 was dissolved in Mueller-Hinton broth to 1.25 times of the desired assay concentration. Antibiotics were dissolved in Mueller-Hinton broth and Mueller-Hinton broth with ATX-101 at a concentration of 1.25 times the highest desired assay concentrations. Antibiotics were pharmaceutical grade purchased from Sigma-Aldrich.
(§3) Two-fold serial dilutions of antibiotics were made in Mueller-Hinton with different concentrations of ATX-101, and the solutions were placed in four parallel wells is Nunc 384-well micro plates (30 μl per well in Nunc 242757 microplates). A group of 8 wells with no addition of antibiotics for each ATX-101 concentration was included on each micro plate as a growth reference.
(§4) At the day of analysis, overnight TSB cultures inoculated from freeze stocks (6 ml in 50 ml tube tilted to 45-degrees angle, 200 rpm, 2.5 cm amplitude, 37° C.) were diluted in TSB until the OD800 was 0.10, and further diluted 1:40 in Mueller-Hinton broth. Each well in the 384-well assay plates was inoculated with 7.5 μl of the diluted culture, giving the same dilution of the culture in the assay cultures. The microplates were placed in plastic bags and incubated without shaking at 37° C. The optical density at 600 nm in the microwells was measured after approximately 19 hours of incubation, and the relative growth yield was calculated based on the growth in the reference groups. The MIC value was set to the highest concentration giving less than 30% growth in all 4 parallel wells within the sample groups. The microplates were further incubated for 6 hours, and optical density in the cultures was measured once more for confirmation of the estimated MIC-values.

[2] = system: gram positive bacteria (Enterococcus faecium CCUG 37832, Enterococcus faecium CTC 492, Micrococcus luteus ATCC 9341); type: cell-based
Description: as §1, §2, §3, §4

E. faecium CTC 492 = assay: MIC assay of antibiotics with ATX-101; type: cell-based, Enterococcus faecium
Description: as §1, §2, §3, §4
(§5) The APIM peptide was dissolved in Mueller-Hinton broth to 1.25 times of the desired assay concentration. Antibiotics were dissolved in Mueller-Hinton broth and Mueller-Hinton broth with APIM at a concentration of 1.25 times the highest desired assay concentrations. Antibiotics were pharmaceutical grade purchased from Sigma-Aldrich.
(§6) Two-fold serial dilutions of antibiotics were made in Mueller-Hinton with different concentrations of APIM, and the solutions were placed in four parallel wells in Nunc 384-well micro plates (30 μl per well in Nunc 242757 microplates). A group of 8 wells with no addition of antibiotics for each APIM concentration was included on each micro plate as growth reference.
as §4, with “inoculated” for “inoculated from”, “OD600” for “OD800”, “culture.” for “culture, giving the same dilution of the culture in the assay cultures.”, “yield in each well” for “yield”

E. coli NCIMB 12210 = assay: MIC assay of antibiotics with ATX-101; type: cell-based, Escherichia coli; details: FIG. 4
Description: as §1, §2, §3, §4, §5, §6
as §4, with “inoculated” for “inoculated from”, “OD600” for “OD800”, “culture.” for “culture, giving the same dilution of the culture in the assay cultures.”, “yield in each well” for “yield”

E. faecium TO-12 = type: cell-based
Description: as §2, §3, §4
(§7) The MICS for various APIM peptides were determined for various bacteria, as described above.

P. aeruginosa = type: cell-based
Description: as §2, §3, §4, §7

[3] = system: Staphylococcus aureus NCTC 6571; type: cell-based
Description: as §2, §3, §4, §7

[4] = system: Staphylococcus aureus MRSA 1040s; assay: microbe, parasite or virus in culture; type: cell-based
Description: as §2, §3, §4, §5, §6
as §4, with “inoculated” for “inoculated from”, “OD600” for “OD800”, “culture.” for “culture, giving the same dilution of the culture in the assay cultures.”, “yield in each well” for “yield”
In view of the anti-bacterial effect of ATX-101 on strains of MRSA, the MIC for a variety of APIM variants was determined using Staphylococcus aureus MRSA 1040s. […] A cell penetrating peptide (SEQ ID NO: 337) present in all of the APIM peptides, was used as a negative control.
Next, the effect of APIM peptides on the MIC of antibiotics was determined using Staphylococcus aureus MRSA 1040s.
as §7

[5] = system: Staphylococcus aureus MRSA 1096; type: cell-based
Description: as §2, §3
At the day of analysis, overnight TSB cultures inoculated from freeze stocks (6 ml in 50 ml tube tilted to 45-degrees angle, 200 rpm, 2.5 cm amplitude, 37° C.) were diluted in TSB until the OD800 was 0.10, and further diluted 1:40 in Mueller-Hinton broth. […] The optical density at 600 nm in the microwells was measured after approximately 19 hours of incubation, and the relative growth yield was calculated based on the growth in the reference groups. […] The microplates were further incubated for 6 hours, and optical density in the cultures was measured once more for confirmation of the estimated MIC-values.

[6] = system: E. faecium CCUG 37832 (TO-3); type: cell-based, Enterococcus faecium
Description: as §2, §3, §4
Accordingly, concentrations of 8 μg/ml and 16 μg/ml of ATX-101 were combined with various antibiotics selected from; 2,4-Diamin, S. methizol, S. methoxa, S. dimetho, Surfaceta, Trimeth, Flumeq, Levoflox, Pruliflox, Metronid and Nitrofur.
as §7

MRSA 1040 (u50) biofilm = assay: MRSA biofilm under flow (IBIDI flow-system); type: cell-based, Staphylococcus aureus
Description: The IBIDI flow-system coupled with EVOS Auto Imaging system was optimized and used for testing the effect of ATX-101 on MRSA biofilm under flow. MRSA 1040 (u50) was used as model organism; it normally produces a dense biofilm in the growth channel during 36 hours of flow. The effect of 3 different concentrations of ATX-101 was tested (7 μg/ml, 3.5 μg/ml and 0.8 μg/ml). The flow system was programmed with share stress similar to those found in capillary networks (3.49 dyne/cm^2), 2% Luria Bertani (LB) was used for dilution and flow medium.

[7] = starting concentration of ATX-101 150 μg/ml

## MDRWLVKWKKKRKIRRRRRRRRRRR [ATX-101]
[1]
  MIC: 5 to 10 µg/mL
[1]; FIG. 1, gram negative bacteria
  growth inhibited by ATX-101 from (concentration): about 1 μM
[2]
  MIC: about 1 μg/ml
[2]; FIG. 2, gram positive bacteria
  growth inhibited by ATX-101 from (concentration): about 1 μM
E. faecium CTC 492; 6.5 μg/ml or 13 μg/ml ATX-101, about 0.5-2 μg/ml novobiocin
  effect on inhibition of bacterial growth by novobiocin: enhances the inhibition of bacterial growth
E. faecium CTC 492; 20 μg/ml ATX-101, with or without ampicillin or novobiocin
  growth at higher concentration of ATX-101: no growth was observed
E. coli NCIMB 12210
  reduction of the MIC for novobiocin: 16 fold
E. faecium TO-12
  MIC: 16.8 µM
P. aeruginosa
  MIC: 37.9 µM
[3]; NCTC 6571
  MIC: 37.9 µM
[3]; Staphylococcus aureus NCTC 6571
  MIC of ATX-101: 150 µg/mL
[3]; [7]
  Factor of inhibition: 1
[4]; 1040s
  MIC: 7.5 µM
[4]; Table 4, MRSA 1040s
  MIC of ATX-101: 37.5 µg/mL
[4]; Table 5, peptide alone, MRSA 1040s
  MIC: 32 µg/mL
[4]; Table 6, alone, MRSA 1040s
  MIC: 16 µg/mL
[4]; concentration of APIM peptide 7.5 μg/ml, MRSA 1040s
  MIC of Erythromycin (Relative values): 1000
[4]; concentration of APIM peptide 15 μg/ml, MRSA 1040s
  MIC of Erythromycin (Relative values): 125
[4]; [7]
  Factor of inhibition: 0.25
[5]; MRSA 1096
  MIC of ATX-101: 9.375 µg/mL
[5]; [7]
  Factor of inhibition: 0.0625
[6]; ATX-101 alone, text b504
  MIC: 7.5 µg/mL
[6]; Table 9, E. faecium TO-3
  MIC: 7.5 µM
MRSA 1040 (u50) biofilm; 0.8 μg/ml ATX-101, 36 hours, FIG. 15
  biofilm formation: biofilm formation is inhibited
MRSA 1040 (u50) biofilm; 7 μg/ml ATX-101, 36 hours, FIG. 14
  biofilm formation: biofilm formation is inhibited
MRSA 1040 (u50) biofilm; 7 μg/ml, 3.5 μg/ml and 0.8 μg/ml
  effect on MRSA biofilm under flow: Good effect
